Test results from US20240350430A1, “GROWTH INHIBITOR OF METASTATIC HUMAN PROSTATE CANCER CELLS” (Watanabe Oyster Laboratory Co., Ltd., priority 2021, published 2024).

What was measured:
PC-3 cells [1] = experiment: Cell migration scratch assay, PC-3 cells; format: cell-based, human; conditions: DHMBA 1, 10, 100, or 1000 μM, 48 hours
Experimental: The migration of the prostate cancer PC-3 and DU-145 cells was examined using a scratch assay. The PC-3 and DU-145 cells (the cell number of 2×10^5/in 1 ml of a culture fluid per hole using a 24-hole plate) were cultured in a DMEM culture fluid containing 10% of FBS, 1% of P/S, and 1% of fungizone under 5% of CO2, at 37° C., for 48 hours, and a straight line scratch was performed using a pipette tip (200 μl) when the cells reached confluence. Free cells were washed with PBS to be removed, the above-described culture fluid (containing 0.1, 1, 10, 100, or 1000 μM of the DHMBA) was added, and the cells were cultured for 48 hours. After the culture, intervals of cell-free parts were measured.
The PC-3 and DU-145 cells (the cell number of 2× 10^5/1 ml of a culture fluid per hole using a 24-hole plate) were cultured under 5% of CO2, at 37° C., for 48 hours in a DMEM culture fluid containing 10% of FBS, 1% of P/S, and 1% of fungizone, and a straight line scratch was performed using a pipette tip (200 μl) when the cells reached confluence. Free cells were washed with PBS to be removed, the above-described culture fluid (containing 0.1, 1, 10, 100, or 1000 μM of the DHMBA) was added, and the cells were cultured for 48 hours. After the culture, intervals of cell-free parts were measured. […]

PC-3 cells [2] = experiment: Intracellular active oxygen (ROS) production, H2DCFDA, PC-3 cells; format: cell-based, human; conditions: DHMBA 1, 10, 100, and 1000 μM, 24 hours
Experimental: The intracellular active oxygen (reactive oxygen species: ROS) was measured using an ROS measurement kit (MAK144-1 Kit, Sigma-Aldrich) using pro-fluorescent substrate H2DCFDA. The PC-3 and DU-145 cells (the cell number of 2.5×10^4/per well, in 0.1 ml of a culture fluid per hole using a 96-hole plate) were cultured in a DMEM culture fluid (containing 10% of FBS, 1% of P/S, and 1% of fungizone) containing the DHMBA (0.1, 1, 10, 100, or 1000 μM) under 5% of CO2, at 37° C., for 24 hours. After the culture, the cells were washed with PBS, 0.1 ml and 25 μM of an H2DCFDA solution was added, and incubation was performed for 45 minutes. Afterwards, the cells were washed with PBS, and as the amount of active oxygen produced in the cells, fluorescence intensity was measured using a fluorescence measurement plate reader at a wavelength Ex/Em=485/535 nm.
The PC-3 and DU-145 cells (2.5×10^4/0.1 ml of a culture fluid per hole using a 96-hole plate) were cultured under 5% of CO2, at 37° C., for 24 hours in a DMEM culture fluid (containing 10% of FBS, 1% of P/S, and 1% of fungizone) containing the DHMBA (0.1, 1, 10, 100, or 1000 μM). […] After the cells were washed with PBS, a fluorescence intensity of the cells was measured using a fluorescence measurement plate reader at a wavelength Ex/Em=485/535 nm. […]

Compound: COc1c(O)cc(CO)cc1O [DHMBA, 3,5-dihydroxy-4-methoxybenzyl alcohol]
- migration (PC-3 cells [1]): significantly inhibited
- amount of intracellular active oxygen production (PC-3 cells [2]): significant inhibition
